The source of these data is patent US5932217A, “Peptides which inhibit adhesion between leukocytes and endothelial cells” (priority 1994, dated 1999).

The assay has as its system THP-1 cells. As to the kind of experiment: Generation of Factor Xa by monocytes. Type of assay: cell-based. The following applies: peptides 0.5 mM. The procedure:
Factor Xa generation was determined by a modification of the method of Miletich et al. (1978), J. Biol. Chem. 253: 6908-6916. THP-1 cells (ATCC; 3×10^7 /ml) resuspended in RPMI 1640 (Bio Whittaker, Walkersville, Md.) were incubated with 100 μM ADP (Sigma), 2.5 mM CaCl2, 1 or 5 μg/ml Factor X (Hematologic Technologies Inc.) and 0.5 mM peptides at room temperature. After 20 minutes, 100 μl of the reaction mixture was transferred to 37° C. and supplemented with 100 μl of bovine factor VII- and Factor X-deficient plasma (Sigma). Coagulation was initiated by adding 100 μl of 25 mM CaCl2 and the clotting time was determined. Factor Xa procoagulant activity (ng/ml) was calculated by means of a standard curve constructed by serial concentrations of Factor Xa (Hematologic Technologies Inc.) from 50 to 250 ng/ml.

Ac-ETKEVDG-NH2 [Acetyl/Amide-FHA II] displayed a Clotting time of 40.0 ± 3.0 s. The “Factor Xa” value (from standard curve) turned out to be 28.5 ng/mL.
